Values after ≈ are worked out from the molar mass of the structure shown. Values joined by “and” are separate entries in the source; they are usually repeats but may differ in a detail not shown here. Equal entries are not always repeated.
Tests used:
RBCs = assay: Hemolytic assay; format: cell-based; conditions: human RBCs; compounds 1.0 mg/mL; Triton X-100 0.1% v/v; 37 °C, 35 min
[1] = test system: C. albicans200 (MDR00200); assay: MIC and MFC by broth microdilution; format: cell-based, Candida albicans
S. aureus (MDR00231) [2] = assay: Agar well-diffusion antimicrobial sensitivity assay; format: cell-based, Staphylococcus aureus
E. coli DNA gyrase = E. coli DNA gyrase (Escherichia coli, UniProt P0AES4+P0AES6); assay: DNA gyrase inhibition; format: biochemical
E. coli [3] = assay: Single-step resistance selection; format: cell-based; conditions: 4 × MIC, 48 h
E. coli (MDR00501) [4] = assay: MIC and MBC by broth microdilution; format: cell-based
B. subtilis = assay: Single-step resistance selection; format: cell-based; conditions: 4 × MIC, 48 h
S. aureus [5] = assay: Checkerboard combination assay with Ciprofloxacin; format: cell-based, Staphylococcus aureus
[6] = test system: BNL: mouse normal liver cells; assay: In vitro cytotoxicity on normal cell line; format: cell-based
[7] = In vitro cytotoxicity on normal cell line; format: cell-based, mouse; conditions: mouse, BNL normal liver cells
A. baumannii (MDR00521) [8] = assay: MIC and MBC by broth microdilution; format: cell-based; conditions: ratio in parentheses
B. subtilis (MDR00423) [9] = assay: MIC and MBC by broth microdilution; format: cell-based
A. baumannii [10] = assay: Checkerboard combination assay with Ciprofloxacin; format: cell-based
C. albicans100 = assay: Single-step resistance selection; format: cell-based, Candida albicans; conditions: 4 × MIC, 48 h
[11] = test system: H9C2: rat heart/myocardium; assay: In vitro cytotoxicity on normal cell line; format: cell-based
[12] = In vitro cytotoxicity on normal cell line; format: cell-based, rat; conditions: rat, H9C2 heart/myocardium cells
S. aureus (MDR00231) [13] = assay: MIC and MBC by broth microdilution; format: cell-based, Staphylococcus aureus
K. pneumoniae = assay: Single-step resistance selection; format: cell-based; conditions: 4 × MIC, 48 h
K. pneumoniae (MDR00244) [14] = assay: MIC and MBC by broth microdilution; format: cell-based; conditions: ratio in parentheses
S. aureus biofilm = assay: Staphylococcus biofilm mass reduction; format: cell-based; conditions: at their MIC
S. epidermidis biofilm = assay: Staphylococcus biofilm mass reduction; format: cell-based; conditions: at their MIC
[15] = test system: S. epidermidis (MDR00223); assay: Agar well-diffusion antimicrobial sensitivity assay; format: cell-based, Staphylococcus epidermidis
C. albicans200 [16] = assay: Single-step resistance selection; format: cell-based, Candida albicans; conditions: 4 × MIC, 48 h
S. epidermidis = assay: Single-step resistance selection; format: cell-based, Staphylococcus epidermidis; conditions: 4 × MIC, 48 h
[17] = test system: C. albicans100 (MDR00100); assay: Agar well-diffusion antimicrobial sensitivity assay; format: cell-based, Candida albicans
[18] = test system: C. albicans200 (MDR00200); assay: as above; format: cell-based, Candida albicans
[19] = biological target: T1, dihydrofolate reductase (DHFR) (Homo sapiens, UniProt P00374); assay: DHFR inhibition; format: biochemical
T1 sequence (P00374 1-187): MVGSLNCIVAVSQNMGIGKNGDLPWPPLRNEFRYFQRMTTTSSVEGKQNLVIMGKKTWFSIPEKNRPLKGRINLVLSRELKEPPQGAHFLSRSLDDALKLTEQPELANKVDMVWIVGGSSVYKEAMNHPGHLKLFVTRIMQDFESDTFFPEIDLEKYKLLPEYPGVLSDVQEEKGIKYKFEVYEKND

C. albicans200 [20] = assay: Checkerboard combination assay with Ketoconazole; format: cell-based, Candida albicans
E. coli [21] = assay: Checkerboard combination assay with Ciprofloxacin; format: cell-based
S. aureus [22] = assay: Single-step resistance selection; format: cell-based, Staphylococcus aureus; conditions: 4 × MIC, 48 h
[23] = test system: Vero: green monkey kidney; assay: In vitro cytotoxicity on normal cell line; format: cell-based
[24] = In vitro cytotoxicity on normal cell line; format: cell-based, green monkey; conditions: green monkey, Vero kidney cells
Gram-negative bacteria = assay: MIC broth microdilution, Gram-negative panel; format: cell-based; conditions: Gram-negative bacteria used in this study
E. coli (MDR00501) [25] = assay: Agar well-diffusion antimicrobial sensitivity assay; format: cell-based
[26] = test system: C. albicans100 (MDR00100); assay: MIC and MFC by broth microdilution; format: cell-based, Candida albicans
A. baumannii [27] = assay: Single-step resistance selection; format: cell-based; conditions: 4 × MIC, 48 h
[28] = test system: S. epidermidis (MDR00223); assay: MIC and MBC by broth microdilution; format: cell-based, Staphylococcus epidermidis
[29] = test system: clinical pathogenic isolates; assay: Single-step resistance selection, whole panel; format: cell-based; conditions: 4 × MIC
B. subtilis (MDR00423) [30] = assay: Agar well-diffusion antimicrobial sensitivity assay; format: cell-based; conditions: 100 mg/mL in DMSO, 50 μL per well, ± SD
A. baumannii (MDR00521) [31] = assay: as above; format: cell-based; conditions: 100 mg/mL in DMSO, 50 μL per well, ± SD
K. pneumoniae (MDR00244) [32] = assay: as above; format: cell-based; conditions: 100 mg/mL in DMSO, 50 μL per well, ± SD
[33] = Candida albicans, read-out: Inhibition Zone (IZ)

Sequence of E. coli DNA gyrase (P0AES4 whole entry, one chain of several): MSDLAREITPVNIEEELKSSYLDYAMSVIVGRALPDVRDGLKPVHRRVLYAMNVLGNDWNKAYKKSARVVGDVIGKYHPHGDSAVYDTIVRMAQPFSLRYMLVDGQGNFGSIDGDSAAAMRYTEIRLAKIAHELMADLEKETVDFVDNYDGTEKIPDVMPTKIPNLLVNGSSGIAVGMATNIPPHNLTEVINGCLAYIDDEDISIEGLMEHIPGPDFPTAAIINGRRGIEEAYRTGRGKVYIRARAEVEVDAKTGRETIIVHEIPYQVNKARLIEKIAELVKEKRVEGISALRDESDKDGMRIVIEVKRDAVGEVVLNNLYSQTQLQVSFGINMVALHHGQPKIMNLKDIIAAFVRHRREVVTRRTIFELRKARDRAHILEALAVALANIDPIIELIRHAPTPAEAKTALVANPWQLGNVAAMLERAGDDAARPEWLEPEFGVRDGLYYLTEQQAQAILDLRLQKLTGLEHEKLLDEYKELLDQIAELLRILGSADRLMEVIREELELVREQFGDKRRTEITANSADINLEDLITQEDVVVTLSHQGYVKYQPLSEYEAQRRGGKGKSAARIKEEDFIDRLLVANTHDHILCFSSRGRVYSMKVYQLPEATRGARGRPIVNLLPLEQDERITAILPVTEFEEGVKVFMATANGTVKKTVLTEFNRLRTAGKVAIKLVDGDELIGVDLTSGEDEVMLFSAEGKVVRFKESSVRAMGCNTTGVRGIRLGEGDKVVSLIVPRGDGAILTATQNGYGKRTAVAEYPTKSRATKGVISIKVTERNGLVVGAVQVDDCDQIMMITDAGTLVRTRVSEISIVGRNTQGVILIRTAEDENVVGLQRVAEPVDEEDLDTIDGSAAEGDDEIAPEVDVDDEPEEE

For `Cc1c(NC(=O)CC2=NC(=O)CS2)c(=O)n(-c2ccccc2)n1C` [Compound 10, N-(1,5-Dimethyl-3-oxo-2-phenyl-2,3-dihydro-1H-pyrazol-4-yl)-2-(4-oxo-4,5-dihydrothiazol-2-yl)acetamide], the “%lysis of RBCs” value (RBCs) was 11.66% and 11.66 ± 0.231%, the MFC/MIC ([1]; C. albicans200, ratio in parentheses) was 1 and the MIC ([1]; Candida albicans, read-out: MIC (mean ± SEM), C. albicans200, broth microdilution) was 0.47 ± 0.1 mg/L (≈ 1.36 µM). For the same compound, the zone of inhibition at 100000 µg/mL (S. aureus (MDR00231) [2]; Staphylococcus aureus, read-out: Inhibition Zone (IZ)) was 27 ± 0.21 mm, the IC50 (E. coli DNA gyrase) was 28.88 ± 0.12 µM and the “Single-step resistance frequency (mutation frequency)” value (shortened to “Single-step resistance frequency”) (E. coli [3]) was 2.60 × 10^–8. The MBC/MIC (E. coli (MDR00501) [4]; E. coli, ratio in parentheses) was 1, the MIC (E. coli (MDR00501) [4]; Escherichia coli, read-out: MIC (mean ± SEM), E. coli, broth microdilution) was 0.46 ± 0.4 mg/L (≈ 1.34 µM) and the “Single-step resistance frequency” value (B. subtilis) was 3.50 × 10^–8. The combination effect (S. aureus [5]) was “S (S: synergism)”, the “fractional inhibitory concentration index (FICI)” value (S. aureus [5]) was 0.5 and the “Selectivity index against DHFR” value ([6]; IC50 of BNL / IC50 of DHFR) was 69.64. For the same compound, the “Selectivity index against DNA gyrase” value ([6]; IC50 of BNL / IC50 of DNA gyrase) was 3.42, the IC50 at 72 h [7] was 98.9 ± 1.54 µM and the MBC/MIC (A. baumannii (MDR00521) [8]) was 0.5. For the same compound, the MBC/MIC (B. subtilis (MDR00423) [9]; B. subtilis, ratio in parentheses) was 2, the MIC (B. subtilis (MDR00423) [9]; Bacillus subtilis, read-out: MIC (mean ± SEM), B. subtilis, broth microdilution) was 0.98 ± 0.1 mg/L (≈ 2.85 µM) and the combination effect (A. baumannii [10]) was “S (S: synergism)”. The “fractional inhibitory concentration index (FICI)” value (A. baumannii [10]) was 0.5, the “Single-step resistance frequency” value (C. albicans100) was 3.33 × 10^–8 and the “Selectivity index against DHFR” value ([11]; IC50 of H9C2 / IC50 of DHFR) was 70.26. The “Selectivity index against DNA gyrase” value ([11]; IC50 of H9C2 / IC50 of DNA gyrase) was 3.45, the IC50 at 72 h [12] was 99.8 ± 1.84 µM and the MBC/MIC (S. aureus (MDR00231) [13]; S. aureus, ratio in parentheses) was 1. For the same compound, the MIC (S. aureus (MDR00231) [13]; Staphylococcus aureus, read-out: MIC (mean ± SEM), S. aureus, broth microdilution) was 0.95 ± 0.2 mg/L (≈ 2.76 µM), the “Single-step resistance frequency” value (K. pneumoniae) was 2.61 × 10^–8 and the MBC/MIC (K. pneumoniae (MDR00244) [14]) was 1. For the same compound, the “reduction of biofilm formation” value (S. aureus biofilm) was 55.6%, the “reduction of biofilm formation” value (S. epidermidis biofilm) was 53.3% and the zone of inhibition at 100000 µg/mL ([15]; Staphylococcus epidermidis, read-out: Inhibition Zone (IZ)) was 26 ± 0.4 mm. For the same compound, the “Single-step resistance frequency” value (C. albicans200 [16]) was 3.50 × 10^–8, the “Single-step resistance frequency” value (S. epidermidis) was 3.00 × 10^–8 and the zone of inhibition at 100000 µg/mL [17, 33] was 28 ± 0.88 mm. For the same compound, the zone of inhibition at 100000 µg/mL [18, 33] was 30 ± 0.55 mm, the IC50 [19] was 1.42 ± 0.23 µM and the combination effect (C. albicans200 [20]) was “S (S: synergism)”. For the same compound, the “fractional inhibitory concentration index (FICI)” value (C. albicans200 [20]) was 0.5, the combination effect (E. coli [21]) was “S (S: synergism)” and the “fractional inhibitory concentration index (FICI)” value (E. coli [21]) was 0.5. The “Single-step resistance frequency” value (S. aureus [22]) was 2.41 × 10^–8, the “Selectivity index against DHFR” value ([23]; IC50 of Vero / IC50 of DHFR) was 49.33 and the “Selectivity index against DNA gyrase” value ([23]; IC50 of Vero / IC50 of DNA gyrase) was 2.42. The IC50 at 72 h [24] was 70.06 ± 0.34 µM, the “MIC, range over panel” value (Gram-negative bacteria) was 0.43 to 0.98 mg/L and the zone of inhibition at 100000 µg/mL (E. coli (MDR00501) [25]; Escherichia coli, read-out: Inhibition Zone (IZ)) was 25 ± 0.22 mm. For the same compound, the MFC/MIC ([26]; C. albicans100, ratio in parentheses) was 2, the MIC ([26]; Candida albicans, read-out: MIC (mean ± SEM), C. albicans100, broth microdilution) was 0.95 ± 0.3 mg/L (≈ 2.76 µM) and the “Single-step resistance frequency” value (A. baumannii [27]) was 2.53 × 10^–8. For the same compound, the MBC/MIC ([28]; S. epidermidis, ratio in parentheses) was 1, the MIC ([28]; Staphylococcus epidermidis, read-out: MIC (mean ± SEM), S. epidermidis, broth microdilution) was 0.97 ± 0.4 mg/L (≈ 2.82 µM) and the “mutation frequency, range over panel” value [29] was 2.41 × 10^–8 to 3.50 × 10^–8.

With `N#CC=c1[nH]c(=O)c(=Cc2cn(-c3ccccc3)nc2-c2ccccc2)s1` [Compound 3a, 2-(5-((1,3-Diphenyl-1H-pyrazol-4-yl)methylene)-4-oxothiazolidin-2-ylidene)acetonitrile] the “Inhibition Zone (IZ)” value (S. aureus (MDR00231) [2]; S. aureus, 100 mg/mL in DMSO, 50 μL per well, ± SD) was “-ve”, the “Inhibition Zone (IZ)” value (B. subtilis (MDR00423) [30]) was “-ve” and the “Inhibition Zone (IZ)” value ([15]; S. epidermidis, 100 mg/mL in DMSO, 50 μL per well, ± SD) was “-ve”. The “Inhibition Zone (IZ)” value ([17]; C. albicans100, 100 mg/mL in DMSO, 50 μL per well, ± SD) was “-ve”, the “Inhibition Zone (IZ)” value ([18]; C. albicans200, 100 mg/mL in DMSO, 50 μL per well, ± SD) was “-ve” and the “Inhibition Zone (IZ)” value (A. baumannii (MDR00521) [31]) was “-ve”. For the same compound, the “Inhibition Zone (IZ)” value (E. coli (MDR00501) [25]; E. coli, 100 mg/mL in DMSO, 50 μL per well, ± SD) was “-ve” and the “Inhibition Zone (IZ)” value (K. pneumoniae (MDR00244) [32]) was “-ve”.
